Activity calls are given as the source filed them.
Key:
[1] = target: Procathepsin L (Homo sapiens, UniProt P07711)
[2] = target: Aspartyl aminopeptidase (Plasmodium falciparum 3D7, UniProt Q8I2J3)
[3] = target: G-protein coupled receptor 55 (Homo sapiens, UniProt Q9Y2T6); assay: inhibition of LPI-stimulated GPR55 beta-arrestin translocation – imaging, U2OS, beta-arrestin-GFP, LPI agonist, primary screen (AID 2013); type: functional;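 further: antagonist potency measured as reduced agonist-driven arrestin aggregation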
Sequence of G-protein coupled receptor 55 (Q9Y2T6 whole entry): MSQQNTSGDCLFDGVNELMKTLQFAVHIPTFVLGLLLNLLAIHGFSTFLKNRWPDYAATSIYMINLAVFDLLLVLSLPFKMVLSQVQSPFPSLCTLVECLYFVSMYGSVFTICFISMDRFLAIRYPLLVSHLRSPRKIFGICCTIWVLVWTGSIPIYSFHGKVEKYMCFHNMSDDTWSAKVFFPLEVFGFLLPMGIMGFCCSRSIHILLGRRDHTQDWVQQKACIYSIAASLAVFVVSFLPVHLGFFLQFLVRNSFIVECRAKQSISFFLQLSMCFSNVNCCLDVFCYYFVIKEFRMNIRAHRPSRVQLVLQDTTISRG

[4] = target: T1, Neuropeptides B/W receptor type 1 (Homo sapiens, UniProt P48145); assay: Fluorescence-based dose response cell-based high throughput screening assay to identify antagonists of the G-protein coupled receptor 7 (GPR7). [Related pubchem assays: 1952 (Screening assay (GPR7 antagonists).), 1880 (Summary AID.)]; type: functional
T1 sequence (P48145 whole entry): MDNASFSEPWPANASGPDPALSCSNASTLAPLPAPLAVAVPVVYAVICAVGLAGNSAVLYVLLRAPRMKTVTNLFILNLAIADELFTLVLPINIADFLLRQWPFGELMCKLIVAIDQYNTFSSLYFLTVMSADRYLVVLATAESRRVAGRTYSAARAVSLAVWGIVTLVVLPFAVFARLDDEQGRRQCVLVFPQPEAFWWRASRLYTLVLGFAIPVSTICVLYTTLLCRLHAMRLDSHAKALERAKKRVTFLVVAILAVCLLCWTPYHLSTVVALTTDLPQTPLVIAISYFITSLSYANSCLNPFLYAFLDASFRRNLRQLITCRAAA

[5] = target: T2, Melanin-concentrating hormone receptor 1 (Homo sapiens, UniProt Q99705); assay: Fluorescence-based counterscreen for antagonists of the G-protein coupled receptor 7 (GPR7): cell-based high throughput dose response assay to identify antagonists of the melanin-concentrating hormone receptor 1 (MCHR1).; type: functional
T2 sequence (Q99705 whole entry): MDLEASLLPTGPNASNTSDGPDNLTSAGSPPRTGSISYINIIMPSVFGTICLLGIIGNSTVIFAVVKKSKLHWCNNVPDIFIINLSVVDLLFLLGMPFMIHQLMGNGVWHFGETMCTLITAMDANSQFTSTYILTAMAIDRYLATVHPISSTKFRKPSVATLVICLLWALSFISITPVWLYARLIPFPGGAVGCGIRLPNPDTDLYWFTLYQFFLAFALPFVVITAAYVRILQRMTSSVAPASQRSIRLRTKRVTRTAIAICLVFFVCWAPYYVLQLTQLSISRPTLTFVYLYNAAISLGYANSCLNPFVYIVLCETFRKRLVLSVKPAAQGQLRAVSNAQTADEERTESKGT

[6] = target: T2, Melanin-concentrating hormone receptor 1; assay: Late-stage fluorescence-based counterscreen for antagonists of the G-protein coupled receptor 7 (GPR7): cell-based dose response assay to identify antagonists of the melanin-concentrating hormone receptor 1 (MCHR1). [Related pubchem assays (depositor defined):AID1861, AID1880, AID1952, AID2148, AID2251, AID2257, AID485339]; type: functional
[7] = target: T1, Neuropeptides B/W receptor type 1; assay: human NPBW1 receptor blockade, IC50 – cell-based, fluorescence, dose response, late-stage follow-up (AID 463251); type: functional
[8] = alpha-synuclein stem-loop translation blockers – luminescence, H4 neuroglioblastoma cells, dose confirmation, confirmation (AID 2454); type: functional, cell-based;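 further: H4 neuroglioblastoma cells carrying an alpha-synuclein 5'UTR luciferase reporter; potency for inhibition of the luciferase signal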
[9] = target: T3, Microphthalmia-associated transcription factor (Homo sapiens, UniProt O75030); assay: reducers of TRPM1 reporter luminescence, concentration series – cell-based, SK-MEL-5, cherry-picked, set 3, MITF inhibitor project, dose response (AID 493073); type: functional;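 further: SK-MEL-5 melanoma cells with luciferase driven by the MITF target TRPM1 promoter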
T3 sequence (O75030 whole entry): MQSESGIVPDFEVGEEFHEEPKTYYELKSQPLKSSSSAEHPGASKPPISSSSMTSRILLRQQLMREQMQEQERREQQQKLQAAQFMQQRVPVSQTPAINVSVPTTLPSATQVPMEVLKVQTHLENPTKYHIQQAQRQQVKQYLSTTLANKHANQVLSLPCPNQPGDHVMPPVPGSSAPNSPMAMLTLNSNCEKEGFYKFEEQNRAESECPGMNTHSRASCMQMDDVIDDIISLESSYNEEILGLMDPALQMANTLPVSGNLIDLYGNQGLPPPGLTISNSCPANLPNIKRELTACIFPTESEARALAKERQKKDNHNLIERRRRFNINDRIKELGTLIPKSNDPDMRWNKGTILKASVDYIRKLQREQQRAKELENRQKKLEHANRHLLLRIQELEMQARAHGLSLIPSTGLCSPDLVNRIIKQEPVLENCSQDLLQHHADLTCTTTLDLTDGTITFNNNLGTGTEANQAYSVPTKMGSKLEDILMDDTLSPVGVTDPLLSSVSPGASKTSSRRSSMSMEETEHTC

[10] = luciferase reporter signal reduction – luminescence, H4-C neuroglioblastoma cells, dose response (AID 2458); type: functional, cell-based;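 further: H4 neuroglioblastoma cells stably carrying a luciferase reporter gene fusion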
[11] = Luminescence Cell-Based Dose Response HTS to Identify Inhibitors of 5'UTR Stem-Loop Driven Prion Protein mRNA Translation in H4 Neuroglioblastoma Cells. [Related pubchem assays: 1827 (Project Summary), 1813 (Primary HTS)]; type: functional
[12] = cells; type: functional, cell-based
[13] = luciferase reporter signal suppression in cells – H4 neuroglioma cells, luminescence, dose response (AID 1990); type: functional, cell-based
[14] = target: Neurotensin receptor type 1 (Homo sapiens, UniProt P30989); type: functional;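 further: Image-based confirmatory dose-response assay measuring agonist activity at NTR1; NTR1-expressing U2OS osteosarcoma cells imaged for beta-arrestin GFP spot formation; agonist potency where compounds increase beta-arrestin recruitment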
Sequence of Neurotensin receptor type 1 (P30989 whole entry): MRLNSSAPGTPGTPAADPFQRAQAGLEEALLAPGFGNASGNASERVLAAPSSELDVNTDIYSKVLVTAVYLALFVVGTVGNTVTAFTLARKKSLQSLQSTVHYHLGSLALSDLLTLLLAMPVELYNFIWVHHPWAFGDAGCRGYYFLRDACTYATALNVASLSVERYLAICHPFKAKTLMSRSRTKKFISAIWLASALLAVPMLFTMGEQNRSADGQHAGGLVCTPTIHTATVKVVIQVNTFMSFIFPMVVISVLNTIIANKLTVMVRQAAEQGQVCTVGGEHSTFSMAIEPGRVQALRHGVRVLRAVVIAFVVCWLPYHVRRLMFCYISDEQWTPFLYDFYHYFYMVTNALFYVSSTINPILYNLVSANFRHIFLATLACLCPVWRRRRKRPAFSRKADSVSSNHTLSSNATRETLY

[15] = target: T4, Heat shock factor protein 1 (Mus musculus, UniProt P38532); assay: enhancement of HSF1-driven luciferase signal – cell-based, NIH3T3, luminescence, dose retest, confirmation (AID 435004); type: functional;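 further: stress induced by proteasome inhibitor MG132 added 30 min after compound; luciferase reporter driven by HSF1 response element in NIH3T3 cells; actives raise luminescence as potentiators of the MG132 stress response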
T4 sequence (P38532 whole entry): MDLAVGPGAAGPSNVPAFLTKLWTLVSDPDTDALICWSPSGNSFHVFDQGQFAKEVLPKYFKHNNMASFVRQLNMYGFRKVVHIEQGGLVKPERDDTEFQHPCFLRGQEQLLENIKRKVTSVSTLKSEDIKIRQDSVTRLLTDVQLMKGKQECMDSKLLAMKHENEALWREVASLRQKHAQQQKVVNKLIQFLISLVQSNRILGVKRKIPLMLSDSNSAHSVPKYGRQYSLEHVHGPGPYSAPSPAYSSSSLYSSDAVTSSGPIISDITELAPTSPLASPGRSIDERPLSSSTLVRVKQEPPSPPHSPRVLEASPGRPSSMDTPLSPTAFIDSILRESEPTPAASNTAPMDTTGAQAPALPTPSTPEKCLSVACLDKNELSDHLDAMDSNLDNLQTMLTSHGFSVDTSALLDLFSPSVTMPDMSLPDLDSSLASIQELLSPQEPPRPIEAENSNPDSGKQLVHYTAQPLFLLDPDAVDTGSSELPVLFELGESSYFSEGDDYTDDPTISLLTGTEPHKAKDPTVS

[16] = target: Intestinal-type alkaline phosphatase (Homo sapiens, UniProt P09923); assay: Dose Response confirmation of uHTS hits from a small molecule inhibitors of human intestinal alkaline phosphatase via a luminescent assay. [Related pubchem assays (depositor defined):AID2544, AID2574]; type: functional
Sequence of Intestinal-type alkaline phosphatase (P09923 whole entry): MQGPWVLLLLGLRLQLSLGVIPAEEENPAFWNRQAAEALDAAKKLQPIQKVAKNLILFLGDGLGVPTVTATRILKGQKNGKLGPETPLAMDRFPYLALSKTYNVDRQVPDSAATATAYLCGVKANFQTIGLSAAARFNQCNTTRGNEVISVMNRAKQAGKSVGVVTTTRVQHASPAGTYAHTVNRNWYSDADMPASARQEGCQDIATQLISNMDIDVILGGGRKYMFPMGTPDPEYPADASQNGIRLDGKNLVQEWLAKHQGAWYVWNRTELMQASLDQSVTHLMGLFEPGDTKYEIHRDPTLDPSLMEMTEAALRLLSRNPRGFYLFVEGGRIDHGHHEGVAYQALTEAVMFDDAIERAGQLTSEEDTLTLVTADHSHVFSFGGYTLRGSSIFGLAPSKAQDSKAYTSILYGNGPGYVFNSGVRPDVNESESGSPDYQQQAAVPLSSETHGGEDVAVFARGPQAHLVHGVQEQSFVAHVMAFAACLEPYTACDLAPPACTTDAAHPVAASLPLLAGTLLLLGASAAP

[17] = target: T5, Eukaryotic translation initiation factor 4H (Homo sapiens, UniProt Q15056); assay: inhibitors of translation initiation factor eIF4H – SAR follow-up (AID 435011); type: functional
[18] = target: DNA dC->dU-editing enzyme APOBEC-3G (Homo sapiens, UniProt Q9HC16); type: functional;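 further: Dose-response counterscreen measuring inhibition of APOBEC3G DNA deaminase activity, run while confirming APOBEC3A inhibitors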
Sequence of DNA dC->dU-editing enzyme APOBEC-3G (Q9HC16 whole entry): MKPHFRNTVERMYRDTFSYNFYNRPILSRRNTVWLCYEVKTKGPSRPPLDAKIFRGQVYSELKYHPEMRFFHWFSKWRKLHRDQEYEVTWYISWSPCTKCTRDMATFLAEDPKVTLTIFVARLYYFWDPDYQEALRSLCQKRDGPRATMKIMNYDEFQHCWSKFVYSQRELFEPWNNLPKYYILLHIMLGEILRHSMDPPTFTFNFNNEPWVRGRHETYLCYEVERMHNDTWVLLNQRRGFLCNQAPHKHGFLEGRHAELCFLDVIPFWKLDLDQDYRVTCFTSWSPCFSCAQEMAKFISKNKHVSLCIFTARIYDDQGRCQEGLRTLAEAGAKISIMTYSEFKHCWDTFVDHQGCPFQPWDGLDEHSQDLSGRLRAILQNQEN

[19] = target: T6, Polyadenylate-binding protein 1 (Homo sapiens, UniProt P11940); assay: blockers of PABP interaction with poly(A) – biochemical, fluorescence polarization, […] (AID 2014)
T6 sequence (P11940 whole entry): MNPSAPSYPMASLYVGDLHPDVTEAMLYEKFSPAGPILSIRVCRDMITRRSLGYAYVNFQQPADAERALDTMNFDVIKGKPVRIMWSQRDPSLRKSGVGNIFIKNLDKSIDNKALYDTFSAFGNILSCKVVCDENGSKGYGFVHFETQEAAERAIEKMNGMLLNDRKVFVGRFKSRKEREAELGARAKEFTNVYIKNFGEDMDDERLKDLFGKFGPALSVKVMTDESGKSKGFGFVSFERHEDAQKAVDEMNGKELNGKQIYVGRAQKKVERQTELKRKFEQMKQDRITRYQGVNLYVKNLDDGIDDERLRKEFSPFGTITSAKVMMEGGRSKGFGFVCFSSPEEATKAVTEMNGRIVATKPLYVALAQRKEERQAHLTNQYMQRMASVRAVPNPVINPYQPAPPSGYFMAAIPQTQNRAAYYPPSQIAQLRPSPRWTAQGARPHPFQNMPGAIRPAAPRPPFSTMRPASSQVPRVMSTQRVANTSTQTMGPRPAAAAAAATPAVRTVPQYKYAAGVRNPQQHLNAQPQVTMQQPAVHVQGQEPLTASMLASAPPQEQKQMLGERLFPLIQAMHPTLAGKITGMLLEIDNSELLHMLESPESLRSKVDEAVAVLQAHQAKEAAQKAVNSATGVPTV

[20] = target: T5, Eukaryotic translation initiation factor 4H; assay: eIF4H binding inhibition – biochemical, uHTS, fluorescence polarization, translation initiation inhibitor project, primary screen (AID 2012)
[21] = target: T6, Polyadenylate-binding protein 1; assay: PABP inhibition in translation initiation, SAR follow-up (AID 435018); type: functional
[22] = target: DNA dC->dU-editing enzyme APOBEC-3A (Homo sapiens, UniProt P31941); assay: Dose Response confirmation of small molecule APOBEC3A DNA Deaminase Inhibitors via a fluorescence-based single-stranded DNA deaminase assay. [Related pubchem assays (depositor defined):AID493011, AID493024]; type: functional
Sequence of DNA dC->dU-editing enzyme APOBEC-3A (P31941 whole entry): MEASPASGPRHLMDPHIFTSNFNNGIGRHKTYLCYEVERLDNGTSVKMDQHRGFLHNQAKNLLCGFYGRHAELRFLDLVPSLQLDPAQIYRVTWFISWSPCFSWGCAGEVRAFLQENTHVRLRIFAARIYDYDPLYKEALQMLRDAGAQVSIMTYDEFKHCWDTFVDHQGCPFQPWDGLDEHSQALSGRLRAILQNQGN

Sequence of Aspartyl aminopeptidase (Q8I2J3 whole entry): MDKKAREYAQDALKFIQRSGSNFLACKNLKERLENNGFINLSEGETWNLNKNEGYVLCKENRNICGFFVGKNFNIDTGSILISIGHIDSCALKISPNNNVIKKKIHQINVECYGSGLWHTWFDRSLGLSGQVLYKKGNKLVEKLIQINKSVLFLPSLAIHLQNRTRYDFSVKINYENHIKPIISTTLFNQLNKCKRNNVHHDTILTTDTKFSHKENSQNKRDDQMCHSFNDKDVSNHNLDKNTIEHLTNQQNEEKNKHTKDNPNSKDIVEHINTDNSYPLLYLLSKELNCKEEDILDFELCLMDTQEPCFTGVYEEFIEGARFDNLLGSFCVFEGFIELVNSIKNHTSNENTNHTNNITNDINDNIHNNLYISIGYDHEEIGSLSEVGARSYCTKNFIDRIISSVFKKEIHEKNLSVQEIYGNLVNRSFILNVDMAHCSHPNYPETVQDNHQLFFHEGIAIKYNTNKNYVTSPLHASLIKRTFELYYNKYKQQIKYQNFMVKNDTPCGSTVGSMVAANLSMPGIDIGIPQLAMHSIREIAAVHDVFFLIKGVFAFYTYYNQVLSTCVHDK
Sequence of Procathepsin L (P07711 whole entry): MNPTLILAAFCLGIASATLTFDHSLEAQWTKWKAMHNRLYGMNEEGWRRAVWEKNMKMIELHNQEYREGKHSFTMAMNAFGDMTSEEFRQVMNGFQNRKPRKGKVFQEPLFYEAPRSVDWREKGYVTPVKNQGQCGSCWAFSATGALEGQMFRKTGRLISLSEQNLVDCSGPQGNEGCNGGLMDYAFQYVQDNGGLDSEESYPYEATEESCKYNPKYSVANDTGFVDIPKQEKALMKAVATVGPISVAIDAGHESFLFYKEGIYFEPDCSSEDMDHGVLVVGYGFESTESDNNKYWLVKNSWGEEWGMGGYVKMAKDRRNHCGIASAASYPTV

## CCOC(=O)c1ccc(NC(=O)Nn2cnnc2)cc1
[1]
  IC50: > 59.6 µM (not active)
[2]
  IC50: 2.09 µM (active)

## Cc1cc(Cl)ccc1NC(=S)N(CCCN1CCOCC1)Cc1cccs1
[3]
  IC50: 6.24 µM (active)

## Cc1ccccc1N(CC(=O)NC1CCCCC1)C(=O)CCCC(=O)Nc1ccccn1
[4]
  IC50: > 43.8 µM (not active)
[5]
  IC50: > 43.8 µM (not active)

## O=C(C1CCCCN1Cc1ccc(Cl)cc1)N1CCN(c2ccc([N+](=O)[O-])cc2)CC1 (configuration not stated)
[6]
  IC50: 1.8 µM (active)
[7]
  IC50: 1.6 µM (active)

## Cc1ccc(C(=O)c2cccc(N)c2)cc1C
[8]
  EC50: 1.46 µM (active)
[9]
  AC50: 3.62 µM (active)
[10]
  EC50: 1.11 µM (active)
[11]
  EC50: < 0.1 µM (active)
[12]
  EC50: 2.86 µM (active)
[13]
  EC50: < 0.1 µM (active)

## CCOc1cc(/C=C2/C(=O)ON=C2C)ccc1OCc1ccc(F)cc1
[14]
  EC50: 16.2 µM (active)
[15]
  EC50: 8.12 µM (active)

## CCn1c2ccccc2c2cc(NC(=O)c3coc(=O)c(Br)c3)ccc21
[16]
  IC50: 55.6 µM (inactive)

## CC(C)NC(=O)C(C)N1CCN(S(=O)(=O)c2ccc3ccccc3c2)CC1 (configuration not stated)
[17]
  IC50: 27.6 µM (active)
[18]
  IC50: 3.72 µM (active)
[19]
  IC50: 5.92 µM (active)
[20]
  IC50: 88.9 µM (active)
[21]
  IC50: 20.5 µM (active)
[22]
  IC50: 3.38 µM (active)
